For 1 compound, inhibition and IC50 results are on record in PMC4687057, “The function of phosphatidylinositol 5-phosphate 4-kinase γ (PI5P4Kγ) explored using a specific inhibitor that targets the PI5P-binding site” (Biochemical Journal, 2015).

Experiment [1] addresses T1, PI5P4Kγ+ (E378H,I159V,D161V) mutant (Homo sapiens, UniProt Q8TBX8, D161V/E153T/I159V/Q378H).
T1 construct: gene PIP4K2C
T1 sequence (Q8TBX8 2-421 E153T/I159V/D161V/Q378H): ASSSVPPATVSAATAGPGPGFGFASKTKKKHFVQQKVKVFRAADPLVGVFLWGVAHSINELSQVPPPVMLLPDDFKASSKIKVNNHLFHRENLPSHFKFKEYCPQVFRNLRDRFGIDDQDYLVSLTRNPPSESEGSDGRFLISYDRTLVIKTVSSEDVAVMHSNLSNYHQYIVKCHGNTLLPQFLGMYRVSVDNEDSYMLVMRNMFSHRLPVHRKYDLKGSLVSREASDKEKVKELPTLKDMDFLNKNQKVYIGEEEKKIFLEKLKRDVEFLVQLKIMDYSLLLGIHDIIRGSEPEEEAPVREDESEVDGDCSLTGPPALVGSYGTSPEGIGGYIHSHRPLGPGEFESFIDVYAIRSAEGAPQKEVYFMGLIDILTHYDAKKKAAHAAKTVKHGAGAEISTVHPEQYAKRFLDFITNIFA
Nature of the experiment: […] lipid kinase assay, % inhibition at […]. Type of experiment: biochemical.

Experiment [2] addresses T2, phosphatidylinositol 5-phosphate 4-kinase γ (PI5P4Kγ) (Homo sapiens, UniProt Q8TBX8).
T2 construct: gene PIP4K2C; PI5P4Kγ from GST fusion (pGEX6P), GST cleaved with PreScission protease
Nature of the experiment: HDX-MS with purified protein; IC50 from […]P lipid kinase assay on recombinant enzyme. The format is biochemical.

T2 sequence (Q8TBX8 2-421): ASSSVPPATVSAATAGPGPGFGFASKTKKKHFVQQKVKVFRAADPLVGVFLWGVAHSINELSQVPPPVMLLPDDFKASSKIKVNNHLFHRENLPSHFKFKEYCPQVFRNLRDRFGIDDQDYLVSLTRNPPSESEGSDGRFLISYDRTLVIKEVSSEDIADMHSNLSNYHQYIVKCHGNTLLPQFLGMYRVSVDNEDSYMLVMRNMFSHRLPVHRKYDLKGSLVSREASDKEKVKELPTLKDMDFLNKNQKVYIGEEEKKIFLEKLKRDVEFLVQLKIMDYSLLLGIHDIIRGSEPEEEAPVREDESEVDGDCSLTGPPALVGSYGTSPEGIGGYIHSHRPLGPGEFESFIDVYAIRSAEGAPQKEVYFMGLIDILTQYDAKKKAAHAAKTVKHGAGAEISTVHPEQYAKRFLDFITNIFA

One may read the inhibition as the change of the read-out against control, counted positive when it falls. Low values mean little suppression, high ones strong suppression. What is called IC50 is the concentration that gives 50% inhibition. In turn, `FC(F)(F)c1ccccc1-c1nc(NCc2cccs2)c2ccccc2n1` [compound 1, NIH-12848] showed an inhibition at 10 µM in experiment [1] of 71%. Moreover, the IC50 in experiment [2] was 3.3 µM.
